Our source for the GI50 and TGI values is PubChem BioAssay (NCI).

Where “and” joins values, the source holds several entries; their conditions need not be identical. Equal entries are not always repeated.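 These data come from cells grown in 96-well plates and exposed to compound for 48 hours at five concentrations. GI50: concentration for 50% inhibition of growth. At the TGI there is no net growth.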 Where only a bound is given, the exact number is not on record here.

Holding throughout (experiment): NCI anticancer screen, dose series, 48 h
Test [1] concerns MOLT-4 leukemia.
Test [2] deals with IGROV1 ovarian.
In test [3] the test system is HCT-15 colon.
The subject of test [4] is BT-549 breast.
Test [5] concerns HT29 colon.
The test system of test [6] is UACC-62 melanoma.
In test [7] the test system is OVCAR-5 ovarian.
The subject of test [8] is SK-OV-3 ovarian.
Test [9] concerns RPMI-8226 leukemia.
Test [10] relates to HOP-92 NSCLC.

In the case of `COc1cc(Cn2c(-c3ccccc3)cc3c2-c2oncc2CC3)cc(OC)c1`, the GI50 was 0.427 µM in test [1]; 0.399 µM in [2]; 0.361 µM in test [3]; 0.9 µM in [4]; 0.315 µM in test [5]; 0.314 µM in test [6]. The GI50 in [7] is 0.551 µM; in test [8], 0.4 µM; in [9] it was 0.459 µM; in [10] it was 4.11 µM. Also, the TGI in test [1] is above 100 µM; in test [2], above 100 µM; in test [3], above 100 µM; in [4] it was above 100 µM; in [5], 25.9 µM; in test [6], above 100 µM. The TGI in [7], in [8] and in test [10] was above 100 µM in each case.

For H-QIYKKYRTWYRKAWKVLGKV-NH2, the GI50 is 11.7 µM in [1]; 3.06 µM in [2]; 2.92 µM in [3]; 5.36 µM in test [4]; 20.8 µM in test [5]; 2.08 µM in [6]. Also, the GI50 was 8.79 µM in test [7], 11.3 µM in test [8], 6.85 µM in test [9] and 1.95 µM in [10]. Further, the TGI was 79.5 µM in test [1]; 14.1 µM in [2]; 17 µM in test [3]; 27.2 µM in test [4]; above 100 µM in test [5]; 4.74 µM in test [6]. The TGI in [7] was 22.5 µM; in [8] it was 30.5 µM; in [9] it was 77.7 µM; in [10], 4.81 µM.

For `O=C(NOCCO)c1cc(CN2OCCCC2=O)c(F)c(F)c1Nc1ccc(I)cc1F`, the GI50 in test [1] was 38.2 µM and > 10 µM; in [2] it was 0.101 µM and 0.0246 µM; in test [3] it was 5.74 µM and > 6.24 µM; in test [4], 17.3 µM and > 10 µM; in test [5], < 0.01 µM and 0.0029 µM; in test [6], below 0.01 µM. Also, the GI50 is < 0.01 µM and 0.00485 µM in [7]; 22.6 µM and > 2.5 µM in test [8]; 21.7 µM and > 5.14 µM in test [9]; 0.0223 µM and 0.0177 µM in test [10]. For the same molecule, the TGI in test [1] was above 100 µM; in [2], above 52.5 µM; in test [3], above 100 µM; in [4], above 100 µM; in test [5], above 42.7 µM; in test [7], above 100 µM. Also, the TGI was above 85.8 µM in [8]; above 84.4 µM in test [9]; 0.688 µM and 0.436 µM in test [10].

In the case of `C=CC(C)(O)CC/C=C(\CO)C(=O)OC1C(C)OC(O[C@](C)(C=C)CC/C=C(\CO)C(=O)O[C@H]2C[C@@]3(C(=O)OC4OC(CO)C(O)C(O)C4OC4OC(C)C(OC5OC(CO)C(O)C5O)C(OC5OC(CO)C(O)C(O)C5O)C4O)C(CC2(C)C)C2=CCC4[C@@]5(C)CC[C@H](OC6OC(COC7OC(C)C(O)C(O)C7OC7OCC(O)C(O)C7O)C(O)C(O)C6NC(C)=O)C(C)(C)C5CC[C@@]4(C)[C@]2(C)C[C@H]3O)C(O)C1O` (stereo partly drawn), the GI50 is 0.886 µM in test [1]; 2.96 µM in test [2]; 4.72 µM in test [3]; 5.04 µM in test [4]; 1.42 µM in test [5]; 0.687 µM in test [6]. Moreover, the GI50 is 1.38 µM in [7], 0.203 µM in test [8], 5 µM in test [9] and 0.0736 µM in test [10]. The TGI in test [1] came out at 12.9 µM; in test [2], 9.63 µM; in test [3] it was 10.6 µM; in test [4], 10.6 µM; in [5], 6.06 µM; in [6], 5.28 µM. In addition, the TGI in [7] was determined as 5.95 µM; in test [8], 0.794 µM; in test [9] it was 18 µM; in test [10] it was 0.794 µM.

In the case of `O=C1/C(=C\c2ccccc2)C2OCC=C3CN4CCC56c7ccccc7N1C5C2C3CC46` (stereo not drawn), the GI50 was 7.23 µM in [1]; 4.69 µM in test [2]; 7.77 µM in test [3]; 34.2 µM in test [4]; 2.07 µM in [5]; 1.83 µM in test [6]. Besides, the GI50 is above 100 µM in test [7], above 100 µM in test [8], 5.54 µM in test [9] and 6.27 µM in test [10]. Moreover, the TGI in [1] is above 100 µM; in [2], above 100 µM; in [3], above 100 µM; in test [4] it was above 100 µM; in test [5], 5.37 µM; in [6], 4.06 µM. Moreover, the TGI in [7] was above 100 µM; in test [8] it was above 100 µM; in test [9], above 100 µM; in test [10], 86.8 µM.

As for `O=C(/C=C/c1ccc([N+](=O)[O-])cc1)c1cccc(Nc2nc(Nc3ccccc3)nc(Nc3ccccc3)n2)c1`, the GI50 in test [1] was 2.6 µM; in test [2], 0.671 µM; in test [3], 17.7 µM; in test [4], 27 µM; in [5], 7.79 µM; in test [6] it was 21.7 µM. The GI50 was 51 µM in test [7], 73.8 µM in [8], 1.66 µM in [9] and 0.662 µM in test [10]. The TGI is 20 µM in [1]; 63.1 µM in test [2]; above 100 µM in test [3]; above 100 µM in test [4]; above 100 µM in test [5]; above 100 µM in test [6]. In addition, the TGI in [7] is above 100 µM; in [8], above 100 µM; in test [9], 6.31 µM; in [10], 8.5 µM.

Turning to `O=C(/C=C/c1cccc2ccccc12)Nc1ncc(Cc2ccccc2)s1`, the GI50 is 1.65 µM in [1]; 1.27 µM in [2]; 0.507 µM in [3]; 2.44 µM in test [4]; 1 µM in test [5]; 0.437 µM in test [6]. For the same molecule, the GI50 in test [7] is 1.98 µM; in test [8] it was 1.71 µM; in [9], 1.09 µM; in test [10] it was 0.371 µM. The TGI in test [1] is above 100 µM; in test [2], above 87.3 µM; in [3], above 100 µM; in [4], above 100 µM; in test [5], above 47 µM; in [6], above 100 µM. Besides, the TGI was above 100 µM in test [7], above 29.9 µM in test [8], above 100 µM in test [9] and 4.73 µM in test [10].

Consider `CCN(CC)Cc1cc(Nc2c3ccccc3nc3cc(Cl)ccc23)ccc1O`, for which the GI50 in test [1] was 2.01 µM; in test [2], 1.65 µM; in test [3], 3.49 µM; in test [4], 1.95 µM; in [5] it was 0.487 µM; in test [6] it was 2.1 µM. Further, the GI50 in test [7] is 2.42 µM; in test [8] it was 2.01 µM; in test [9], 2.32 µM; in [10], 1.41 µM. The TGI in [1] amounted to 53.5 µM; in test [2], 3.55 µM; in [3] it was 17 µM; in test [4], 3.48 µM; in test [5], 1.75 µM; in test [6], 4 µM. Besides, the TGI was 6.66 µM in test [7], 3.86 µM in [8], 6.27 µM in [9] and 3.13 µM in [10].

For `Cc1cc(Br)cc(C)c1NC(=O)C(=O)Nn1c(=S)[nH]c2ccccc2c1=O`, the TGI in test [1], in test [2], in test [3], in [4], in [5] and in [6] was above 100 µM in each case. In addition, the TGI in test [7], in test [8], in test [9] and in [10] was above 100 µM each time.

As for `CN=C(N)N/N=C(\C)c1ccc2c(c1)Cc1ccccc1-2`, the GI50 in test [1] was 0.352 µM; in test [2] it was 3.74 µM; in test [3], 1.83 µM; in test [4], 10.2 µM; in [5] it was 1.61 µM; in test [6], 1.5 µM. Moreover, the GI50 is 1.65 µM in test [7], 1.61 µM in test [8], 1.72 µM in test [9] and 1.63 µM in test [10]. The TGI in test [1] came out at 1.49 µM; in test [2], 19.5 µM; in [3] it was 3.86 µM; in [4] it was 27.9 µM; in test [5], 3.39 µM; in [6], 2.86 µM. Besides, the TGI in [7] came to 3.96 µM; in test [8], 5.1 µM; in test [9] it was 4.16 µM; in test [10], 5.67 µM.

Regarding `COc1ccc2c(c1)/C(=N/OC(C)=O)c1c-2cnc2ccccc12`, the GI50 is 20 µM in test [1]; 25.3 µM in [2]; 34.9 µM in test [3]; 49.5 µM in test [4]; 43.1 µM in test [5]; 16.6 µM in test [6]. Further, the GI50 in test [7] is 21.9 µM; in [8], 40.4 µM; in test [9], 22.3 µM; in test [10], 18.3 µM. Also, the TGI in test [1] was 92.2 µM; in test [2], 52 µM; in test [3] it was above 100 µM; in [4], above 100 µM; in test [5] it was above 100 µM; in [6], 36.3 µM. The TGI is 55.6 µM in test [7], above 100 µM in [8], 81.5 µM in [9] and 37.2 µM in test [10].
